# Measurements published in patent US8367666B2 (priority 2004, dated 2013).
# Where a name gives a salt, the structure may show the parent alone. Read-outs that look alike come from different tables or passages of the source.
# Assays:
# [1] = system: scratching action induced by Compound 48/80; test: Anti-pruritic activity test by application (Compound 48/80 scratching); assay type: in vivo, mouse (Crj:CD-1 (ICR)); conditions: topical, read-out: Itching inhibition ratio % (Concentration %)
# Method: 1) Preparation of the compound and the reagent: The compound being tested was dissolved in acetone (SIGMA). Compound 48/80 (SIGMA) was dissolved in physiological saline (m by Otsuka Pharmaceutical Co., Ltd.) so as to be 60 μg/mL.
# 2) Animals: Female Crj: CD-1 (ICR) mice of 6 to 10 age in week (Japan Charles Liver) were used as laboratory animals. The animals were fed in the barrier breeding room where […] in room temperature, 30 to 70% in humidity, and the light and shade condition existed every 12 hours and feed (CE-2: Japan Crea) and the drinking water were freely taken. The hair of dorsa (from the cervical region of the back to the center of the back) of the animals were cut with a hair clipper two days or more before the anti-pruritic activity is evaluated, those with no wound, rubefaction, and thickening of the skin on the dehaired part were chosen and supplied to the experiment on the day of the evaluation. 3) Evaluation procedures: The acetone solution of the compound being tested was applied by 50 μL on the dehaired parts of the mice with a pipeter. On the mice of the control group, 50 μL of acetone was applied. The 15 minutes later, 50 μL (corresponding to 3 μg) of Compound 48/80 solution was injected intradermally in the compound applied parts with the use of a injector (Terumo Corporation), the mice were individually put in five observation cages made of acrylate resin at once, and the scratching action (action of scratching the injection part by the hind leg) frequency during 30 minutes was measured. The evaluation was carried out in one group of 5 to 7 mice. 4) Data processing: The experiment results were shown by the mean values. The test of the significant difference of the compound applying group to the control group was conducted with Welch's t-test, and p<0.05 was assumed to be significant.
# CB2 receptor [2] = target: T1, CB2 receptor (Homo sapiens, UniProt P34972); test: cAMP formation inhibition experiment through a cannabinoid receptor (forskolin stimulation), CB2; assay type: cell-based; parameters: expressed in transfected cells; host or cells: CHO cells
# CB1 receptor [3] = target: T2, CB1 receptor (Homo sapiens, UniProt P21554); test: cAMP formation inhibition experiment through a cannabinoid receptor (forskolin stimulation), CB1; assay type: cell-based; parameters: expressed in transfected cells; host or cells: CHO cells
# Method: A compound being tested was added in the CHO cell which had mad human CB1 or CB2 receptor reveal and incubated for 15 minutes, and then forskolin (the final concentration 4 μM, and manufactured by SIGMA Corp.) was added and the mixture was incubated for 20 minutes. After the reaction had been stopped by adding 1M hydrochloric acid, the amount of cAMP in the supernatant was measured with the use of Cyclic AMP kit (made by the CIS Diagnostic Corp.).
# CB1 receptor [4] = target: T2, CB1 receptor; test: Human cannabinoid receptor bonding inhibition test ([3H]CP55940), CB1; assay type: binding; parameters: expressed in transfected cells; membrane fraction
# CB2 receptor [5] = target: T1, CB2 receptor; test: Human cannabinoid receptor bonding inhibition test ([3H]CP55940), CB2; assay type: binding; parameters: expressed in transfected cells; membrane fraction
# [6] = read-out: Agonist activity (nM) CB1
# [7] = [3H]CP55940 0.5 nM, membrane preparation of CHO cells expressing CB1, Ki calculated from IC50, read-out: Binding activity (nM) CB1
# [8] = [3H]CP55940 0.5 nM, membrane preparation of CHO cells expressing CB2, Ki calculated from IC50, read-out: Binding activity (nM) CB2
# [9] = inhibition of forskolin (4 μM)-stimulated cAMP formation, CHO cells expressing human CB2, read-out: Agonist activity (nM) CB2
# [10] = inhibition of forskolin (4 μM)-stimulated cAMP formation, CHO cells expressing human CB1, read-out: Agonist activity (nM) CB1
# T1 sequence (P34972 whole entry): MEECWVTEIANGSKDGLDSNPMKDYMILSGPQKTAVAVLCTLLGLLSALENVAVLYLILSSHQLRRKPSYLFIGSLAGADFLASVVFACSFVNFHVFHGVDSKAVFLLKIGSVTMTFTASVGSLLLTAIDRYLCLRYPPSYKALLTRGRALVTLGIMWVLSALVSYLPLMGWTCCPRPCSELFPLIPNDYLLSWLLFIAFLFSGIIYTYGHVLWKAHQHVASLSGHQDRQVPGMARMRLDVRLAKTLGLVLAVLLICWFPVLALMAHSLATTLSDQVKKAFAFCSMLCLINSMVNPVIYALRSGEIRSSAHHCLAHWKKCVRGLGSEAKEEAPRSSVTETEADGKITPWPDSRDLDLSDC
# T2 sequence (P21554 whole entry): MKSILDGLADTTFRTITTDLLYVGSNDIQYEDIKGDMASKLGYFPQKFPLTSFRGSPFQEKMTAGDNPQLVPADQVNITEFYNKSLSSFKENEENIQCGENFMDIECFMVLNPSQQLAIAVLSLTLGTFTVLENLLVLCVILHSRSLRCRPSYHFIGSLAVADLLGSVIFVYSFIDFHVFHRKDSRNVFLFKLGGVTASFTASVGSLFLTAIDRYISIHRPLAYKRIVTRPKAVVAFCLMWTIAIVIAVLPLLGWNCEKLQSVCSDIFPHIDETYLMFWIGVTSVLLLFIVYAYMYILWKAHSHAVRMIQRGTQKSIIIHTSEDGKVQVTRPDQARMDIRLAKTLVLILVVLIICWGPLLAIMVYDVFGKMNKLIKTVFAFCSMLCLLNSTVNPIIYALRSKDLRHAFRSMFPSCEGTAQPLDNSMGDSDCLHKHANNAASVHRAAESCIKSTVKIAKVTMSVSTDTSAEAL
SMILES,inhibition in vivo at 3 % ([1]; Mus musculus),IC50 (CB2 receptor [2]),IC50 (CB1 receptor [3]; [6]),Ki (CB1 receptor [4]),Ki (CB2 receptor [5]),inhibition in vivo at 1 % ([1]; Mus musculus),Ki (CB1 receptor [4]; [7]),IC50 (CB1 receptor [3]),also measured
CN1CCN(C(=O)C(C)(C)NC(=O)c2cc3c(n(CC4CCCCC4)c2=O)CCCCCC3)CC1,–,–,–,–,–,–,–,–,melting point: 183 to 184 °C
CC(C)(NC(=O)c1cc2c(n(CC3CCCCC3)c1=O)CCCCCC2)C(=O)NN,–,–,–,–,–,–,–,–,melting point: 177 to 180 °C
CC(C)(NC(=O)c1cc2c(n(CCCNS(C)(=O)=O)c1=O)CCCCCC2)C(=O)O,–,–,–,–,–,–,–,–,melting point: 183 to 184 °C
CCCCn1c(CCC)c(CC)cc(C(=O)NC2CCCCC2C(=O)O)c1=O (stereo not drawn),–,–,–,–,–,–,–,–,melting point: 167 to 169 °C
COC(=O)NCCCn1c2c(cc(C(=O)NC(C)(C)C(=O)OC)c1=O)CCCCCC2 (as salt: phosphate),–,–,–,–,–,–,–,–,melting point: 135 to 136 °C
"CC(C)(NC(=O)c1cc2c(n(CC3CCCCC3)c1=O)CCCCCC2)C(=O)NNS(C)(=O)=O [Compound I-052, 1-cyclohexylmethyl-2-oxo-1,2,5,6,7,8,9,10-octahydro-cycloocta[b]pyridine-3-carboxylic acid (1-methylsulfonylhydrazinocarbonyl-1-methyl-ethyl)-amide]",80%,8.1 nM,49 nM,–,–,–,–,–,melting point: 177 to 178 °C
CC(C)(NC(=O)c1cc2c(n(CC3CCCCC3)c1=O)CCCCCC2)C(=O)N1CCC(C(=O)N2CCCCC2)CC1 [Compound I-601],–,6.3 nM,186 nM,47 nM,3.9 nM,67%,–,–,–
CC(C)NC(=O)N1CCN(C(=O)C(C)(C)NC(=O)c2cc3c(n(CC4CCCCC4)c2=O)CCCCCC3)CC1 [Compound I-604],95%,4.8 nM,55 nM,16 nM,2.5 nM,–,–,–,–
CC(C)(NC(=O)c1cc2c(n(CC3CCCCC3)c1=O)CCCCCC2)C(=O)N1CCC(C(=O)NNS(C)(=O)=O)CC1 [Compound I-606],–,8.7 nM,118 nM,60 nM,4.4 nM,86%,–,–,–
CCCCNC(=O)C1CCCN(C(=O)C(C)(C)NC(=O)c2cc3c(n(CC4CCCCC4)c2=O)CCCCCC3)C1 (stereo not drawn) [Compound I-608],75%,3.5 nM,> 2000 nM,527 nM,11 nM,–,–,–,–
CC(C)(NC(=O)c1cc2c(n(CC3CCCCC3)c1=O)CCCCCC2)C(=O)N1CCC(C(=O)N2CCOCC2)CC1 [Compound I-617],–,18 nM,79 nM,295 nM,6.6 nM,96%,–,–,–
O=C(O)Cc1nsc(NC(=O)c2cc3c(n(CC4CCCCC4)c2=O)CCCCCC3)n1 [Compound X-21],–,30 nM,–,–,3.3 nM,106%,1770 nM,> 2000 nM,–
O=C(N[C@@H](C(=O)O)c1ccccc1)c1cc2c(n(CCCC(F)(F)F)c1=O)CCCCCC2 [Compound X-54],–,3.7 nM,> 2000 nM,93 nM,< 2 nM,100%,–,–,–
O=C(O)CCc1csc(NC(=O)c2cc3c(n(CC4CCCCC4)c2=O)CCCCCC3)n1 [Compound X-64],–,–,–,–,–,–,580 nM,–,"Ki (CB2 receptor [5]; [8]): 18 nM; inhibition in vivo at 1 % ([1]; applied as acetone solution 50 μL, concentration 1.0%, mouse, Compound 48/80): 99%; IC50 (CB2 receptor [2]; [9]): 15 nM; IC50 (CB1 receptor [3]; [10]): 454 nM"
CCCC(CC(=O)O)NC(=O)c1cc2c(n(CC3CCCCC3)c1=O)CCCCCC2 (stereo not drawn) [Compound X-66],–,50 nM,–,–,92 nM,71%,> 2000 nM,549 nM,–
CCCCC(CC(=O)O)NC(=O)c1cc2c(n(CC3CCCCC3)c1=O)CCCCCC2 (stereo not drawn) [Compound X-67],–,40 nM,–,–,96 nM,79%,> 2000 nM,> 2000 nM,–
O=C(O)Cc1cnc(NC(=O)c2cc3c(n(CCCC(F)(F)F)c2=O)CCCCCC3)s1 [Compound X-115],–,8.6 nM,–,–,3.3 nM,–,1220 nM,> 2000 nM,inhibition in vivo at 0.5 % ([1]; Mus musculus): 67%
CCc1c(C)cc(C(=O)NC(CC)(CC)CC(=O)O)c(=O)n1Cc1ccc(F)cc1 [Compound X-216],–,30 nM,–,–,3.3 nM,106%,1770 nM,> 2000 nM,–
O=C(O)COc1ccc(NC(=O)c2cc3c(n(CC4CCCCC4)c2=O)CCCCCC3)cc1 [Compound X-220],–,–,–,–,18 nM,–,–,1550 nM,Ki (CB1 receptor [4]; read-out: Binding activity (nM) CB1): 555 nM; inhibition in vivo at 0.5 % ([1]; Mus musculus): 97%; IC50 (CB2 receptor [2]; read-out: Agonist activity (nM) CB2): 231 nM
O=C(NC(C(=O)O)C(F)(F)F)c1cc2c(n(CC3CCCCC3)c1=O)CCCCCC2 (stereo not drawn) [Compound X-229],–,27 nM,–,–,12 nM,–,482 nM,369 nM,inhibition in vivo at 0.5 % ([1]; Mus musculus): 105%
O=C(O)CC(NC(=O)c1cc2c(n(Cc3ccc(F)cc3)c1=O)CCCCCC2)C(F)(F)F (stereo not drawn) [II-067],68%,4.9 nM,–,–,13 nM,–,> 2000 nM,685 nM,–
CC(C)C[C@@H](CC(=O)O)NC(=O)c1cc2c(n(CC3CCCCC3)c1=O)CCCCCC2 [II-069],84%,2.1 nM,5.6 nM,88 nM,3.4 nM,–,–,–,–
O=C(O)CC1(NC(=O)c2cc3c(n(CC4CCCCC4)c2=O)CCCCCC3)CCCCC1 [II-073],58%,0.2 nM,11 nM,88 nM,6.2 nM,–,–,–,–
C/C=C/C(CC(=O)O)NC(=O)c1cc2c(n(CC3CCCCC3)c1=O)CCCCCC2 (stereo not drawn) [II-075],95%,4.6 nM,–,–,48 nM,–,652 nM,290 nM,–
O=C(O)CC(NC(=O)c1cc2c(n(CC3CCCCC3)c1=O)CCCCCC2)C(F)(F)F (stereo not drawn) [II-076],86%,1.2 nM,–,–,41 nM,–,> 2000 nM,> 2000 nM,–
CC(C)C[C@@H](CC(=O)O)NC(=O)c1cc2c(n(Cc3ccc(F)cc3)c1=O)CCCCCC2 [II-078],94%,< 2 nM,–,–,27 nM,–,1450 nM,252 nM,–
CC(C)(CCNC(=O)c1cc2c(n(CC3CCCCC3)c1=O)CCCCCC2)C(=O)O [III-017],76%,35 nM,–,–,15 nM,–,149 nM,322 nM,–
O=C(O)Cc1csc(NC(=O)c2cc3c(n(CC4CCCCC4)c2=O)CCCCCC3)n1 [IV-023],–,–,–,–,–,–,425 nM,–,"Ki (CB2 receptor [5]; [8]): 22 nM; inhibition in vivo at 3 % ([1]; applied as acetone solution 50 μL, concentration 3.0%, mouse, Compound 48/80): 116%; IC50 (CB2 receptor [2]; [9]): 11 nM; IC50 (CB1 receptor [3]; [10]): 398 nM"
O=C(O)Cc1csc(NC(=O)c2cc3c(n(CC4CCCCC4)c2=O)CCCCCC3)c1 [IV-029],–,22 nM,–,–,43 nM,93%,1320 nM,606 nM,–
COCCn1c2c(cc(C(=O)NC3(CC(=O)O)CCCC3)c1=O)CCCCCC2 [XI-035],–,47 nM,> 2000 nM,> 2000 nM,31 nM,–,–,–,inhibition in vivo at 0.5 % ([1]; Mus musculus): 69%
